From patent US12427135B2 (priority 2019, dated 2025)

Experiments:
[1] = target: Stx2a holotoxin (Escherichia phage 933W (Bacteriophage 933W), UniProt P09385); assay: cell-based; type: cell-based
[2] = target: T1, Stx2A1 (Escherichia phage 933W (Bacteriophage 933W), UniProt P09385); type: binding
[3] = target: T1, Stx2A1; assay: biochemical; type: biochemical
[4] = target: T2, RTA (Ricinus communis (Castor bean), UniProt P02879); assay: biochemical; type: biochemical; conditions: for inhibition at 50 µM: read-out: Percent inhibition at 50 μM
[5] = target: T2, RTA; type: binding
[6] = Vero, read-out: % Inhibition Stx2a depurination in Vero cell
[7] = read-out: % inhibition Stx2A1 in yeast ribosome

T1 sequence (P09385 23-272 limits assumed): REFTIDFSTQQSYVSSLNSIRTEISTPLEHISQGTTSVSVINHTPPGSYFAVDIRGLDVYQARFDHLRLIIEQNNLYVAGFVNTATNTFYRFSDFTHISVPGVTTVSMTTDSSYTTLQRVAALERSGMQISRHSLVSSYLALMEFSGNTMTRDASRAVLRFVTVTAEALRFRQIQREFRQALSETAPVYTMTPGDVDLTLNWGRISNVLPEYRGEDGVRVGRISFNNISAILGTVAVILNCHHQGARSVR
Sequence of Stx2a holotoxin (P09385 23-319 limits assumed): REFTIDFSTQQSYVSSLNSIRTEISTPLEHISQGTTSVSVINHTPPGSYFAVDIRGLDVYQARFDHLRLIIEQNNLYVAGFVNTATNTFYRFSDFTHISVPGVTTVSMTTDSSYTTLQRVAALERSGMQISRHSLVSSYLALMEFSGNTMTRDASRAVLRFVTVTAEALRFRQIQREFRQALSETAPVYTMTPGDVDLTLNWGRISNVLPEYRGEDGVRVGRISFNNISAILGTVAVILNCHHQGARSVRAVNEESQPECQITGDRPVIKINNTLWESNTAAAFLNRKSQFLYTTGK

In the case of `O=C(O)c1cc2c(s1)-c1ccccc1CC2` [drawing 373], the inhibition at 250 µM [1, 6] is reported as 18%, the inhibition at 500 µM [1, 6] is reported as 36% and the Kd [2] is reported as 0.629 mM. It also gave an inhibition at 50 µM [3, 7] of 45%, an inhibition at 100 µM [3, 7] of 51% and an inhibition at 200 µM [3, 7] of 80%.

For `O=C(O)c1ccc(-c2ccc(Cl)cc2)o1`, the Kd [2] was 0.575 mM and the IC50 [3] was 194 µM.

`Cc1ccc(-c2ccc(C(=O)O)o2)cc1` was tested, and the Kd [2] was 0.606 mM, the inhibition at 100 µM [3, 7] was 64% and the inhibition at 200 µM [3, 7] was 70%.

Work on `Cc1cccc(O)c1-c1ccc(C(=O)O)s1` [RU-NT-113] yielded an inhibition at 50 µM [4] of 69% and a Kd [5] of 31 µM.

`O=C(O)c1ccc(-c2cccc3c2OCC3)s1` [RU-NT-105] was tested, and the inhibition at 100 µM ([4]; read-out: Percent inhibition at 100 μM) was 54 ± 7% and the Kd [5] was 1180 ± 193 µM.

With `O=C(O)c1ccc(Cc2cccs2)cc1` [CC70601, 4-(thien-2-ylmethyl) benzoic acid] the “binding in the binding level screen” value [5] was “bound RTA better than the positive controls”.

Work on `Cc1cc(C)c(-c2ccc(C(=O)O)s2)c(C)c1` [RU-NT-075] yielded an inhibition at 50 µM [4] of 45%.

In the case of `O=C(O)c1ccc(-c2ccccc2)s1` [CC10501, 5-phenylthiophene-2-carboxylic acid], the “IC50 fold weaker than CC70601” value [4] is reported as 5.6 fold and the “binding in the binding level screen” value [5] is reported as “bound RTA better than the positive controls”.

`O=C(O)c1csc(-c2cccc(Cl)c2)n1` gave a Kd [2] of 0.579 mM, an inhibition at 100 µM [3, 7] of 83% and an inhibition at 200 µM [3, 7] of 91%.

In the case of `O=C(O)c1cc2c(s1)-c1ccccc1CC2` [PD00589, reference compound], the “protection against depurination by Stx2a holotoxin in Vero cells” value [1] is reported as “protected Vero cells against depurination” and the “inhibitory activity against Stx2A/Stx2A1 depurination in vitro” value [3] is reported as “dose-dependent inhibition”.

`O=C(O)c1csc(-c2cccc(Cl)c2Cl)n1` was tested, and the Kd [2] was 0.487 mM, the inhibition at 100 µM [3, 7] was 82% and the inhibition at 200 µM [3, 7] was 62%.

`Cc1ccccc1-c1ccc(C(=O)O)s1` [RU-NT-070] showed an IC50 [4] of 19 µM and a Kd [5] of 72 µM.

With `COc1cccc(C)c1-c1ccc(C(=O)O)s1` [RU-NT-111] the inhibition at 50 µM [4] was 66% and the Kd [5] was 51 µM.

`Cc1cccc(F)c1-c1ccc(C(=O)O)s1` [RU-NT-110] gave an inhibition at 50 µM [4] of 61% and a Kd [5] of 93 µM.
